Here are results for 39 molecules from US9283222B2 (priority 2006, dated 2016).

Molecules are shown by their SMILES.

The target of the test is Recombinant Human Poly(ADP-Ribose) Polymerase (PARP), PARP-1 (Homo sapiens (Human), UniProt P09874). As to conditions: read-out: PARP-1 (Ki); Table 1; text calls the values EC50s.
Recombinant Human Poly(ADP-Ribose) Polymerase (PARP), PARP-1, sequence (P09874 whole entry): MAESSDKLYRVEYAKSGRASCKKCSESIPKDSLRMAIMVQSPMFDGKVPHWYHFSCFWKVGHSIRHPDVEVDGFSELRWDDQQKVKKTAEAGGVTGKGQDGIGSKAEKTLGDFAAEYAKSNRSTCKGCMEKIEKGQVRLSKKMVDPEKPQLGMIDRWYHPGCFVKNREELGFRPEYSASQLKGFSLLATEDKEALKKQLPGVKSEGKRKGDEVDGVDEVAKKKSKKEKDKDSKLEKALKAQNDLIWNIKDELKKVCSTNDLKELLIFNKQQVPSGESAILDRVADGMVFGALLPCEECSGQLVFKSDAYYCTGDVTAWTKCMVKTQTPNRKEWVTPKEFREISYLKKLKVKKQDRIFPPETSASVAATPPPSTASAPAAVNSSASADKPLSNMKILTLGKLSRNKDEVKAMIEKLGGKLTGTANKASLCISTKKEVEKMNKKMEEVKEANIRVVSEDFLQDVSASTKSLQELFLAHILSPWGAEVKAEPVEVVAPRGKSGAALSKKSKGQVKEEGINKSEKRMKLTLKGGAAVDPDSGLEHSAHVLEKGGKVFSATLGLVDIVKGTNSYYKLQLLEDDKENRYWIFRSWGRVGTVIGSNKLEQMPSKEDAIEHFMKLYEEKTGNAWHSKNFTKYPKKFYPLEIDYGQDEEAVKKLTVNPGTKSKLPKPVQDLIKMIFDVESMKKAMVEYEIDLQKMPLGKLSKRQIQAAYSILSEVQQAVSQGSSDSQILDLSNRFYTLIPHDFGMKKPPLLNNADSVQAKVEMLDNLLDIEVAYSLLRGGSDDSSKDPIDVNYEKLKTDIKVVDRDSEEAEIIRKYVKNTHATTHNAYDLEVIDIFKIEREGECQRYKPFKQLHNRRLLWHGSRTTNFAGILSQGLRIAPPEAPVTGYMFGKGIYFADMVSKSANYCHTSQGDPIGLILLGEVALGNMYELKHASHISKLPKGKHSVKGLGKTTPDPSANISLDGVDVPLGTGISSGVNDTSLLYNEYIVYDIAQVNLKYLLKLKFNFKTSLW

The Ki is the equilibrium dissociation constant of an inhibitor or competing ligand from its target. In the case of `O=C(Nc1cccc(Cc2n[nH]c(=O)c3c2CCCC3)c1)c1cc(C(F)(F)F)ccc1F` [Example 191, 2-fluoro-N-(3-((4-oxo-3,4,5,6,7,8-hexahydrophthalazin-1-yl)methyl)phenyl)-5-(trifluoromethyl)benzamide], the inhibition constant Ki came to 31 nM. The figure for `O=C(Nc1cccc(Cc2n[nH]c(=O)c3c2CCCC3)c1)c1ccco1` [Example 193, N-(3-((4-oxo-3,4,5,6,7,8-hexahydrophthalazin-1-yl)methyl)phenyl)-2-furamide] is 100 nM. As to `O=C(Nc1cccc(Cc2n[nH]c(=O)c3c2CCCC3)c1)c1ccoc1` [Example 194, N-(3-((4-oxo-3,4,5,6,7,8-hexahydrophthalazin-1-yl)methyl)phenyl)-3-furamide], the inhibition constant Ki is 61 nM. For `Cc1cc(C(=O)Nc2cccc(Cc3n[nH]c(=O)c4c3CCCC4)c2)c(C)o1` [Example 195, 2,5-dimethyl-N-(3-((4-oxo-3,4,5,6,7,8-hexahydrophthalazin-1-yl)methyl)phenyl)-3-furamide], the inhibitory constant (Ki) is 177 nM. The figure for `O=C(Nc1cccc(Cc2n[nH]c(=O)c3c2CCCC3)c1)c1cccs1` [Example 196, N-(3-((4-oxo-3,4,5,6,7,8-hexahydrophthalazin-1-yl)methyl)phenyl)thiophene-2-carboxamide] is 286 nM. Turning to `O=C(Nc1cccc(Cc2n[nH]c(=O)c3c2CCCC3)c1)c1ccsc1` [Example 197, N-(3-((4-oxo-3,4,5,6,7,8-hexahydrophthalazin-1-yl)methyl)phenyl)thiophene-3-carboxamide], the Ki was 146 nM. The figure for `Cc1ccsc1C(=O)Nc1cccc(Cc2n[nH]c(=O)c3c2CCCC3)c1` [Example 198, 3-methyl-N-(3-((4-oxo-3,4,5,6,7,8-hexahydrophthalazin-1-yl)methyl)phenyl)thiophene-2-carboxamide] is 403 nM; for `Cc1ccc(C(=O)Nc2cccc(Cc3n[nH]c(=O)c4c3CCCC4)c2)s1` [Example 199, 5-methyl-N-(3-((4-oxo-3,4,5,6,7,8-hexahydrophthalazin-1-yl)methyl)phenyl)thiophene-2-carboxamide] it is 196 nM; for `O=C(Nc1cccc(Cc2n[nH]c(=O)c3c2CCCC3)c1)c1ccc[nH]1` [Example 200] it is 158 nM.

Turning to `Cn1cccc1C(=O)Nc1cccc(Cc2n[nH]c(=O)c3c2CCCC3)c1` [Example 201, 1-methyl-N-(3-((4-oxo-3,4,5,6,7,8-hexahydrophthalazin-1-yl)methyl)phenyl)-1H-pyrrole-2-carboxamide], the inhibition constant (Ki) is 570 nM. The figure for `Cc1cc(C(=O)Nc2cccc(Cc3n[nH]c(=O)c4c3CCCC4)c2)c(C)[nH]1` [Example 202, 2,5-dimethyl-N-(3-((4-oxo-3,4,5,6,7,8-hexahydrophthalazin-1-yl)methyl)phenyl)-1H-pyrrole-3-carboxamide] is 93 nM. On to `O=C(Nc1cccc(Cc2n[nH]c(=O)c3c2CCCC3)c1)c1nccs1` [Example 204, N-(3-((4-oxo-3,4,5,6,7,8-hexahydrophthalazin-1-yl)methyl)phenyl)-1,3-thiazole-2-carboxamide], for which the Ki was 203 nM. Then `O=C(Nc1cccc(Cc2n[nH]c(=O)c3c2CCCC3)c1)c1cscn1` [Example 205, N-(3-((4-oxo-3,4,5,6,7,8-hexahydrophthalazin-1-yl)methyl)phenyl)-1,3-thiazole-4-carboxamide], with 176 nM; and `O=C(Nc1cccc(Cc2n[nH]c(=O)c3c2CCCC3)c1)c1cncs1` [Example 206, N-(3-((4-oxo-3,4,5,6,7,8-hexahydrophthalazin-1-yl)methyl)phenyl)-1,3-thiazole-5-carboxamide], with 18 nM; and `O=C(Nc1cccc(Cc2n[nH]c(=O)c3c2CCCC3)c1)c1ccno1` [Example 208, N-(3-((4-oxo-3,4,5,6,7,8-hexahydrophthalazin-1-yl)methyl)phenyl)isoxazole-5-carboxamide], with 22 nM. The figure for `Cc1noc(C)c1C(=O)Nc1cccc(Cc2n[nH]c(=O)c3c2CCCC3)c1` [Example 209, 3,5-dimethyl-N-(3-((4-oxo-3,4,5,6,7,8-hexahydrophthalazin-1-yl)methyl)phenyl)isoxazole-4-carboxamide] is 395 nM; for `O=C(Nc1cccc(Cc2n[nH]c(=O)c3c2CCCC3)c1)c1ccncc1` [Example 211, N-(3-((4-oxo-3,4,5,6,7,8-hexahydrophthalazin-1-yl)methyl)phenyl)isonicotinamide] it is 98 nM; for `O=C(Nc1cccc(Cc2n[nH]c(=O)c3c2CCCC3)c1)c1ncccc1O` [Example 212, 3-hydroxy-N-(3-((4-oxo-3,4,5,6,7,8-hexahydrophthalazin-1-yl)methyl)phenyl)pyridine-2-carboxamide] it is 65 nM. Then `O=C(Nc1cccc(Cc2n[nH]c(=O)c3c2CCCC3)c1)c1cccnc1O` [Example 213, 2-hydroxy-N-(3-((4-oxo-3,4,5,6,7,8-hexahydrophthalazin-1-yl)methyl)phenyl)nicotinamide], with 82 nM; and `O=C(Nc1cccc(Cc2n[nH]c(=O)c3c2CCCC3)c1)c1ccc(O)nc1` [Example 214, 6-hydroxy-N-(3-((4-oxo-3,4,5,6,7,8-hexahydrophthalazin-1-yl)methyl)phenyl)nicotinamide], with 7 nM. Consider `O=C(Cc1ccccn1)Nc1cccc(Cc2n[nH]c(=O)c3c2CCCC3)c1` [Example 215, N-(3-((4-oxo-3,4,5,6,7,8-hexahydrophthalazin-1-yl)methyl)phenyl)-2-pyridin-2-ylacetamide], for which the Ki worked out at 85 nM. For the molecule `O=C(Cc1cccnc1)Nc1cccc(Cc2n[nH]c(=O)c3c2CCCC3)c1` [Example 216, N-(3-((4-oxo-3,4,5,6,7,8-hexahydrophthalazin-1-yl)methyl)phenyl)-2-pyridin-3-ylacetamide], the Ki is 82 nM. Then `Cc1cnc(C(=O)Nc2cccc(Cc3n[nH]c(=O)c4c3CCCC4)c2)cn1` [Example 217, 5-methyl-N-(3-((4-oxo-3,4,5,6,7,8-hexahydrophthalazin-1-yl)methyl)phenyl)pyrazine-2-carboxamide], with 5 nM; and `O=C(Nc1cccc(Cc2n[nH]c(=O)c3c2CCCC3)c1)c1c[nH]c2ccccc12` [Example 218, N-(3-((4-oxo-3,4,5,6,7,8-hexahydrophthalazin-1-yl)methyl)phenyl)-1H-indole-3-carboxamide], with 86 nM; and `Cc1c(C(=O)Nc2cccc(Cc3n[nH]c(=O)c4c3CCCC4)c2)cnn1-c1ccccc1` [Example 219], with 9 nM. With `O=C(Nc1cccc(Cc2n[nH]c(=O)c3c2CCCC3)c1)C1=Cc2cc(Cl)ccc2OC1` [Example 220, 6-chloro-N-(3-((4-oxo-3,4,5,6,7,8-hexahydrophthalazin-1-yl)methyl)phenyl)-2H-chromene-3-carboxamide], the inhibition constant Ki turned out to be 14 nM. For the molecule `CN(C)CCC(=O)Nc1cccc(Cc2n[nH]c(=O)c3c2CCCC3)c1` [Example 221], the inhibition constant (Ki) is 1540 nM. For `Cc1ccc(C(=O)Nc2cccc(Cc3n[nH]c(=O)c4c3CCCC4)c2)c(O)c1` [Example 225, 2-hydroxy-4-methyl-N-(3-((4-oxo-3,4,5,6,7,8-hexahydrophthalazin-1-yl)methyl)phenyl)benzamide], the Ki is 41 nM. On to `CC(=O)c1ccc(C(=O)Nc2cccc(Cc3n[nH]c(=O)c4c3CCCC4)c2)cc1` [Example 226, 4-acetyl-N-(3-((4-oxo-3,4,5,6,7,8-hexahydrophthalazin-1-yl)methyl)phenyl)benzamide], for which the Ki was found to be 40 nM. The figure for `COc1cc(C(=O)Nc2cccc(Cc3n[nH]c(=O)c4c3CCCC4)c2)ccc1C` [Example 227, 3-methoxy-4-methyl-N-(3-((4-oxo-3,4,5,6,7,8-hexahydrophthalazin-1-yl)methyl)phenyl)benzamide] is 60 nM. Then `CCOc1ccc(C(=O)Nc2cccc(Cc3n[nH]c(=O)c4c3CCCC4)c2)cc1` [Example 228, 4-ethoxy-N-(3-((4-oxo-3,4,5,6,7,8-hexahydrophthalazin-1-yl)methyl)phenyl)benzamide], with 98 nM; and `COc1ccc(C(=O)Nc2cccc(Cc3n[nH]c(=O)c4c3CCCC4)c2)cc1F` [Example 229, 3-fluoro-4-methoxy-N-(3-((4-oxo-3,4,5,6,7,8-hexahydrophthalazin-1-yl)methyl)phenyl)benzamide], with 49 nM; and `O=C(Nc1cccc(Cc2n[nH]c(=O)c3c2CCCC3)c1)c1cccc2ccccc12` [Example 230, N-(3-((4-oxo-3,4,5,6,7,8-hexahydrophthalazin-1-yl)methyl)phenyl)-1-naphthamide], with 96 nM. The figure for `O=C(Nc1cccc(Cc2n[nH]c(=O)c3c2CCCC3)c1)c1ccc2ccccc2c1` [Example 231, N-(3-((4-oxo-3,4,5,6,7,8-hexahydrophthalazin-1-yl)methyl)phenyl)-2-naphthamide] is 110 nM; for `CC(C)(C)c1ccc(C(=O)Nc2cccc(Cc3n[nH]c(=O)c4c3CCCC4)c2)cc1` [Example 233, 4-tert-butyl-N-(3-((4-oxo-3,4,5,6,7,8-hexahydrophthalazin-1-yl)methyl)phenyl)benzamide] it is 158 nM; for `CC(=O)Nc1ccc(C(=O)Nc2cccc(Cc3n[nH]c(=O)c4c3CCCC4)c2)cc1` [Example 234, 4-(acetylamino)-N-(3-((4-oxo-3,4,5,6,7,8-hexahydrophthalazin-1-yl)methyl)phenyl)benzamide] it is 57 nM. As for `CCCOc1ccc(C(=O)Nc2cccc(Cc3n[nH]c(=O)c4c3CCCC4)c2)cc1` [Example 235, N-(3-((4-oxo-3,4,5,6,7,8-hexahydrophthalazin-1-yl)methyl)phenyl)-4-propoxybenzamide], the Ki is 198 nM. The figure for `O=C(Nc1cccc(Cc2n[nH]c(=O)c3c2CCCC3)c1)c1ccc2ccccc2c1O` [Example 236, 1-hydroxy-N-(3-((4-oxo-3,4,5,6,7,8-hexahydrophthalazin-1-yl)methyl)phenyl)-2-naphthamide] is 4 nM. In the case of `CSc1ccc(Cl)c(C(=O)Nc2cccc(Cc3n[nH]c(=O)c4c3CCCC4)c2)c1` [Example 237, 2-chloro-5-(methylthio)-N-(3-((4-oxo-3,4,5,6,7,8-hexahydrophthalazin-1-yl)methyl)phenyl)benzamide], the Ki was determined as 68 nM.
